{
  "source": "patent US20250059195A1",
  "about": "“TRIAZOLONE DERIVATIVE SALT AS NEUTROPHIL ELASTASE INHIBITOR” (CHIESI FARMACEUTICI S.P.A., priority 2021, published 2025)",
  "key": {"[1]": {"conditions": "rat, in vivo", "protocol": "(§1) Male Wistar rats were dosed by the snout-only inhalation route with (2-{5-Cyano-2-[(R)-6-methoxycarbonyl-7-methyl-3-oxo-8-(3-trifluoromethyl-phenyl)-2,3,5,8-tetrahydro-[1,2,4]triazolo[4,3-a]pyrimidin-5-yl]-phenyl}-ethyl)-trimethyl-ammonium methanesulfonate salt (described in WO 2014/095700), (2-{5-Cyano-2-[(R)-6-methoxycarbonyl-7-methyl-3-oxo-8-(3-trifluoromethyl-phenyl)-2,3,5,8-tetrahydro-[1,2,4]triazolo[4,3-a]pyrimidin-5-yl]-phenyl}-ethyl)-trimethyl-ammonium xinafoate salt (I) and (2-{5-Cyano-2-[(R)-6-methoxycarbonyl-7-methyl-3-oxo-8-(3-trifluoromethyl-phenyl)-2,3,5,8-tetrahydro-[1,2,4]triazolo[4,3-a]pyrimidin-5-yl]-phenyl}-ethyl)-trimethyl-ammonium acetate salt (which is described in WO 2014/095700), (2-{5-Cyano-2-[(R)-6-methoxycarbonyl-7-methyl-3-oxo-8-(3-trifluoromethyl-phenyl)-2,3,5,8-tetrahydro-[1,2,4]triazolo[4,3-a]pyrimidin-5-yl]-phenyl}-ethyl)-trimethyl-ammonium bromide salt (whose synthesis is described in WO 2014/095700) or lactose (vehicle) given as dry powder formulations. The duration of aerosol exposure was of 60 minutes. On the day of dosing, animals were placed into the plethysmograph tubes for at least 30 minutes prior to dosing and respiratory parameters: respiratory rate, tidal volume, and PenH were continuously recorded for at least 30 minutes pre-dose, 60 minutes during dosing (exposure) and 90 minutes post-exposure. The respiratory parameters were recorded every minute for a total period of 3 hours using the EMMS eDacq system (PLY231, EMMS, Bordon, United Kingdom)."}, "[2]": {"assay": "Solubility in water of different salts", "format": "physicochemical", "conditions": "water at RT", "description": "The complete dissolution of the material was visually observed. […] From this experiment the xinafoate salt has a solubility lower than 0.05 mg/ml."}, "[3]": {"target": "T1, human neutrophil elastase (HNE) (Homo sapiens, UniProt P08246)", "T1 sequence (P08246 30-267)": "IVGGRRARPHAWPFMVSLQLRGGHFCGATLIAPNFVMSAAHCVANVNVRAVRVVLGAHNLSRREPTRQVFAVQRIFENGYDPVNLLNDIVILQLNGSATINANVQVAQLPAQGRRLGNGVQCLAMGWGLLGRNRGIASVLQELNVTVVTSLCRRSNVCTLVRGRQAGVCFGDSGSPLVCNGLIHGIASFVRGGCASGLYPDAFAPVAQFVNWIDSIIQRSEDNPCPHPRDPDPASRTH", "assay": "HNE-induced lung injury assay (BAL fluid haemoglobin content)", "format": "in vivo, rat", "conditions": "for % Inhibition at 300 μg/Kg (inhibition of HNE-induced haemoglobin content in BALF) / % Inhibition at 600 μg/Kg (inhibition of HNE-induced haemoglobin content in BALF): male Sprague Dawley rats, dry powder nose-only inhalation 3 hours prior to HNE i.t. 100 U/rat, vs HNE-treated vehicle control; for % Inhibition at 300 μg/Kg (inhibition of HNE-induced haemoglobin content in BALF): 300 μg/Kg (0.3 mg/kg); for % Inhibition at 600 μg/Kg (inhibition of HNE-induced haemoglobin content in BALF): 600 μg/Kg (0.6 mg/kg); for inhibition of BAL fluid haemoglobin content, dose dependence: inhalation as dry powder formulation at 0.03, 0.3 and 0.6 mg/kg", "description": "Then, one hour after the PBS or HNE administration animals were sacrificed and bronchoalveolar lavage (BAL) was performed in order to assess the HNE-induced lung injury measured as haemoglobin concentration.\nBAL fluid samples were centrifuged at 800 g for 15 min at 4° C. The supernatant was collected and the pellet was re-suspended in 3 mL of distilled water. A standard curve with known volumes of lysated blood cells was made from a stem solution of lysated blood cells. 150 μL of standards and samples were transferred in duplicate to a 96-well plate and the OD measured at 412 nm.\nPercentage of compound efficacy (assessed as inhibition of HNE-induced haemoglobin content in BALF) was calculated following this formula: 100−[(mean of haemoglobin concentration of test compound treated rats exposed to HNE)−(mean of haemoglobin concentration of vehicle treated rats exposed to PBS)]/[(mean of haemoglobin concentration of vehicle treated rats exposed to HNE)−(mean of haemoglobin concentration of vehicle treated rats exposed to PBS)]×100."}, "[4]": {"assay": "Head-out plethysmography (HOP) assay, lung function parameters", "conditions": "rats, dry powder snout-only inhalation", "protocol": "as §1"}, "[5]": {"conditions": "male, Wistar, 0.6 mg/kg, 60 min"}},
  "note": "Read-outs that look alike come from different tables or passages of the source.",
  "data": [
    {"smiles": "CC(=O)[O-].COC(=O)C1=C(C)N(c2cccc(C(F)(F)F)c2)c2n[nH]c(=O)n2[C@@H]1c1ccc(C#N)cc1CC[N+](C)(C)C", "note": "[Acetate, (2-{5-Cyano-2-[(R)-6-methoxycarbonyl-7-methyl-3-oxo-8-(3-trifluoromethyl-phenyl)-2,3,5,8-tetrahydro-[1,2,4]triazolo[4,3-a]pyrimidin-5-yl]-phenyl}-ethyl)-trimethyl-ammonium acetate salt]", "values": [
      {"measurement": "increase in PenH area", "setting": "[1]; male, Wistar, 7 mg/kg, 60 min", "value": "about 9 fold"},
      {"measurement": "increase in respiratory rate, maximum effect vs vehicle", "setting": "[1]; male, Wistar, 7 mg/kg, 60 min", "value": 51, "unit": "%"},
      {"measurement": "reduced tidal volume, maximum decrease vs vehicle control", "setting": "[1]; male, Wistar, 7 mg/kg, 60 min", "value": 50, "unit": "%"},
      {"measurement": "% of Reduction of tidal volume at the highest tested dose", "setting": "[1]; male, Wistar, 60 min", "value": 50, "unit": "%"}
    ]},
    {"smiles": "COC(=O)C1=C(C)N(c2cccc(C(F)(F)F)c2)c2n[nH]c(=O)n2[C@@H]1c1ccc(C#N)cc1CC[N+](C)(C)C", "note": "[Xinafoate, (2-{5-Cyano-2-[(R)-6-methoxycarbonyl-7-methyl-3-oxo-8-(3-trifluoromethyl-phenyl)-2,3,5,8-tetrahydro-[1,2,4]triazolo[4,3-a]pyrimidin-5-yl]-phenyl}-ethyl)-trimethyl-ammonium xinafoate]", "values": [
      {"measurement": "% of Reduction of tidal volume at the highest tested dose", "setting": "[1]", "value": "No variation of any lung function parameters"},
      {"measurement": "solubility", "setting": "[2]; thermodynamic from solid, read-out: Solubility (mg/ml) in water", "value": "< 0.05", "unit": "mg/mL"},
      {"measurement": "Solubility (mg/ml) in water", "setting": "[2]", "value": "<0.05", "unit": "mg/mL"},
      {"measurement": "% Inhibition at 300 μg/Kg (inhibition of HNE-induced haemoglobin content in BALF)", "setting": "[3]", "value": 35, "unit": "%"},
      {"measurement": "% Inhibition at 600 μg/Kg (inhibition of HNE-induced haemoglobin content in BALF)", "setting": "[3]", "value": 80, "unit": "%"},
      {"measurement": "efficacy in inhibiting HNE in vivo, comparison of the salts", "setting": "[3]; rats, dry powder inhalation", "value": "superior efficacy than the methanesulfonate salt"},
      {"measurement": "inhibition of BAL fluid haemoglobin content, dose dependence", "setting": "[3]; rats", "value": "dose-dependent inhibition"}
    ]},
    {"smiles": "COC(=O)C1=C(C)N(c2cccc(C(F)(F)F)c2)c2n[nH]c(=O)n2[C@@H]1c1ccc(C#N)cc1CC[N+](C)(C)C.CS(=O)(=O)[O-]", "note": "[Methanesulfonate, (2-{5-Cyano-2-[(R)-6-methoxycarbonyl-7-methyl-3-oxo-8-(3-trifluoromethyl-phenyl)-2,3,5,8-tetrahydro-[1,2,4]triazolo[4,3-a]pyrimidin-5-yl]-phenyl}-ethyl)-trimethyl-ammonium methanesulfonate]", "values": [
      {"measurement": "increase of PenH compared to vehicle group", "setting": "[1]; [5]", "value": "about 8 fold"},
      {"measurement": "increase of respiratory rate, peak effect vs vehicle (lactose)", "setting": "[1]; [5]", "value": 32, "unit": "%"},
      {"measurement": "reduction of tidal volume, peak effect vs vehicle", "setting": "[1]; [5]", "value": 35, "unit": "%"},
      {"measurement": "increase of PenH compared to vehicle group", "setting": "[1]; male, Wistar, 6 mg/kg, 60 min", "value": "~16", "unit": "fold"},
      {"measurement": "increase of respiratory rate, peak effect vs vehicle (lactose)", "setting": "[1]; male, Wistar, 6 mg/kg, 60 min", "value": 54, "unit": "%"},
      {"measurement": "reduction of tidal volume, peak effect vs vehicle", "setting": "[1]; male, Wistar, 6 mg/kg, 60 min", "value": 39, "unit": "%"},
      {"measurement": "% of Reduction of tidal volume at the highest tested dose", "setting": "[1]; male, Wistar, 60 min", "value": "35-39%"},
      {"measurement": "% Inhibition at 300 μg/Kg (inhibition of HNE-induced haemoglobin content in BALF)", "setting": "[3]", "value": 20, "unit": "%"},
      {"measurement": "% Inhibition at 600 μg/Kg (inhibition of HNE-induced haemoglobin content in BALF)", "setting": "[3]", "value": 25, "unit": "%"},
      {"measurement": "inhibition of BAL fluid haemoglobin content, dose dependence", "setting": "[3]; rats", "value": "dose-dependent inhibition"}
    ]},
    {"smiles": "COC(=O)C1=C(C)N(c2cccc(C(F)(F)F)c2)c2n[nH]c(=O)n2[C@@H]1c1ccc(C#N)cc1CC[N+](C)(C)C.[Br-]", "note": "[Bromide, (2-{5-Cyano-2-[(R)-6-methoxycarbonyl-7-methyl-3-oxo-8-(3-trifluoromethyl-phenyl)-2,3,5,8-tetrahydro-[1,2,4]triazolo[4,3-a]pyrimidin-5-yl]-phenyl}-ethyl)-trimethyl-ammonium bromide salt]", "values": [
      {"measurement": "increase in PenH area compared to vehicle", "setting": "[4]; high dose (5.5 mg/kg)", "value": "~20", "unit": "fold"},
      {"measurement": "reduction in tidal volume, maximum vs vehicle", "setting": "[4]; high dose (5.5 mg/kg), during inhalation", "value": 38, "unit": "%"},
      {"measurement": "increase in PenH area compared to vehicle", "setting": "[4]; low dose (0.55 mg/kg)", "value": "about 8 fold"},
      {"measurement": "increase in respiratory rate, maximum effect vs vehicle", "setting": "[4]; low dose (0.55 mg/kg), during inhalation", "value": 59, "unit": "%"},
      {"measurement": "% of Reduction of tidal volume at the highest tested dose", "setting": "[4]; peak effect vs vehicle (lactose)", "value": 38, "unit": "%"}
    ]}
  ]
}
